Patent US6358883B1, “Pesticidal and parasiticidal use of 1-aryl-1-(substituted thio, sulfinyl and sulfonyl)-2-nitroethane compounds” (American Cyanamid Company, priority 1998, dated 2002)

How the values were obtained:
Type in all cases: in vivo
[1] = system: M. incognita (Root Knot Nematode) larvae; experiment: Evaluation of test compounds against M. incognita larvae in microtiter plate wells (movement score); conditions: larvae scored for movement after 20-24 hours; also: key: A score of '9' indicates inactive worms with a straight, sticklike morphology; A score of '8' indicates inactive worms with a limp, curled or curved morphology; A score of '7' indicates dead/paralyzed worms after 72 hours
Procedure, shortened: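 Newly emerged M. incognita larvae in S Medium (buffered salt solution), 50-65 worms per well, exposed to test compounds in sealed microtiter wells. Movement scored after 20-24 h incubation; wells with obviously dead/paralyzed larvae scored positive. A score of "7" denotes dead/paralyzed worms after […].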

[2] = system: C. elegans (Bristol strain); experiment: Evaluation of test compounds against C. elegans (motility, 96-well plate); set-up: key: 9=complete kill in 4 hours; 8=complete kill in 24 hours; 7=markedly reduced motility in approximately 95% of worms in 24 hours; 0=normal motility, same as controls; conditions: motility at 4 and 24 hours
Procedure, shortened: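 Bristol-strain C. elegans in Na buffer added to wells containing dried compound (applied in 80% acetone) and incubated at 20 °C. Motility of adults and larvae scored subjectively but semi-quantitatively under a dissecting microscope at 4 and 24 h after immersion, plates tapped before reading.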

[3] = system: Spodoptera eridania, 2nd instar larvae, southern armyworm (SAW); experiment: Southern armyworm (SAW) leaf dip test; set-up: key: 0 = no effect; 1 = 10-25% kill; 2 = 26-35% kill; 3 = 36-45% kill; 4 = 46-55% kill; 5 = 56-65% kill; 6 = 66-75% kill; 7 = 76-85% kill; 8 = 86-99% kill; 9 = 100% kill
Procedure, shortened: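 Compound is dissolved at 10,000 ppm in 35% acetone/water, then diluted with water. Lima bean leaves are dipped for 3 seconds, dried and placed with ten 2nd instar larvae on damp filter paper. Mortality, reduced feeding and molting interference are scored at 5 days.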

[4] = system: Diabrotica virgifera virgifera Leconte, 2nd instar western corn rootworm (WCR); experiment: Western corn rootworm (WCR) soil test; set-up: key: 0 = no effect; 1 = 10-25% kill; 2 = 26-35% kill; 3 = 36-45% kill; 4 = 46-55% kill; 5 = 56-65% kill; 6 = 66-75% kill; 7 = 76-85% kill; 8 = 86-99% kill; 9 = 100% kill
Procedure, shortened: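 Compound in 35% acetone/water applied to talc at 1.25 mg active ingredient per jar (about 50 kg/ha), solvent evaporated, then mixed with millet seed and moist soil. Ten 2nd-instar larvae per jar; mortality counted after 5 days, missing larvae scored dead.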

[5] = system: Tetranychus urticae (OP-resistant strain), 2-spotted spider mite (TSM); experiment: 2-spotted spider mite (TSM) plant dip test; set-up: key: 0 = no effect; 1 = 10-25% kill; 2 = 26-35% kill; 3 = 36-45% kill; 4 = 46-55% kill; 5 = 56-65% kill; 6 = 66-75% kill; 7 = 76-85% kill; 8 = 86-99% kill; 9 = 100% kill; conditions: mortality after 2 days
Procedure, shortened: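 OP-resistant mites (~100 per leaf) were transferred onto Sieva lima bean primary leaves about 2 h before treatment. Infested plants were dipped for 3 s in compound from a 10,000 ppm stock in 35% acetone/water, diluted with water. Mortality was counted after 2 days.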

[6] = system: Aphis gossypii, cotton aphid (CA); experiment: Cotton aphid (CA) cotyledon dip test; set-up: key: 0 = no effect; 1 = 10-25% kill; 2 = 26-35% kill; 3 = 36-45% kill; 4 = 46-55% kill; 5 = 56-65% kill; 6 = 66-75% kill; 7 = 76-85% kill; 8 = 86-99% kill; 9 = 100% kill; conditions: mortality after 5 days
Procedure, shortened: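 Cotyledon-stage cotton plants infested overnight via a heavily infested leaf, then dipped in test solution (compound in 35% acetone/water, diluted with water) and dried. Mortality counted after 5 days.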

[7] = system: Spodoptera eridania, eggs-southern armyworm (SAW-Eggs); experiment: Southern armyworm eggs (SAW-Eggs) treated diet test; set-up: key: 0 = no effect; 1 = 10-25% kill; 2 = 26-35% kill; 3 = 36-45% kill; 4 = 46-55% kill; 5 = 56-65% kill; 6 = 66-75% kill; 7 = 76-85% kill; 8 = 86-99% kill; 9 = 100% kill; conditions: mortality after 7 days
Procedure, shortened: (§1)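 Compounds dissolved at 10,000 ppm in 35% acetone/water, diluted with water, applied to artificial diet in wells and dried. Southern corn rootworm or southern armyworm eggs placed on treated diet under vented covers; mortality counted after 7 days.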

[8] = system: Diabrotica undecimpunctata howardi, eggs-southern corn rootworm (SCR-Eggs); experiment: Southern corn rootworm eggs (SCR-Eggs) treated diet test; set-up: key: 0 = no effect; 1 = 10-25% kill; 2 = 26-35% kill; 3 = 36-45% kill; 4 = 46-55% kill; 5 = 56-65% kill; 6 = 66-75% kill; 7 = 76-85% kill; 8 = 86-99% kill; 9 = 100% kill; conditions: mortality after 7 days
Procedure, shortened: as §1

| SMILES | M. incognita (150 ppm) score [1] | Rating Against C. elegans (150 ppm) [2] | SAW (300 ppm) rating [3] | WCR (50 ppm) rating [4] | TSM (300 ppm) rating [5] | CA (300 ppm) rating [6] | SAW Eggs (300 ppm) rating [7] | SCR Eggs (1000 ppm) rating [8] |
| --- | --- | --- | --- | --- | --- | --- | --- | --- |
| CCCOC(=O)CSC(C[N+](=O)[O-])c1ccc2c(c1)OCO2 (racemic) [Example 104] | 8 | 9 | 0 | 0 | 0 | 0 | 0 | 0 |
| CCCSC(C[N+](=O)[O-])c1cccc(OC)c1 (stereo not drawn) [Example 61] | 0 | 7 | 0 | 0 | 0 | 5 (5 = 56-65% kill) | 0 | 0 |
| C=CCSC(C[N+](=O)[O-])c1ccc2ccccc2c1 (stereo not drawn) [Example 125] | 0 | 0 | 0 | 0 | 0 | 0 | 0 | 0 |
| C=CCSC(C[N+](=O)[O-])c1ccc(OC)cc1 (stereo not drawn) [Example 54] | 9 | 9 | 0 | 5 (5 = 56-65% kill) | 0 | 0 | 0 | 0 |
| O=C(CSC(C[N+](=O)[O-])c1ccc2ccccc2c1)OCc1ccccc1 (racemic) [Example 114] | 0 | 9 | 0 | 0 | 3 (3 = 36-45% kill) | 0 | 9 (9 = 100% kill) | 0 |
| CCOC(=O)CSC(C[N+](=O)[O-])c1cccnc1 (stereo not drawn) [Example 172] | 9 | 8 | 0 | 0 | 0 | 0 | 0 | 0 |
| CCCOC(=O)CSC(C[N+](=O)[O-])c1ccc(OC(F)(F)F)cc1 (racemic) [Example 119] | 9 | 8 | 0 | 0 | 3 (3 = 36-45% kill) | 0 | 9 (9 = 100% kill) | 0 |
| CCOC(=O)CSC(C[N+](=O)[O-])c1ccc2c(c1)OCO2 (stereo not drawn) [Example 19] | 9 | 9 | 0 | 3 (3 = 36-45% kill) | 0 | 0 | 0 | 0 |
| CCCOC(=O)CSC(C[N+](=O)[O-])c1cccc(OC)c1 (racemic) [Example 103] | 9 | 8 | 0 | 0 | 4 (4 = 46-55% kill) | 0 | 0 | 0 |
| O=C(O)CSC(C[N+](=O)[O-])c1c(Cl)cccc1Cl (stereo not drawn) [Example 130] | 9 | 9 | 0 | 3 (3 = 36-45% kill) | 0 | 0 | 0 | 0 |
| CCCCOC(=O)CSc1c(F)c(F)c(C(C[N+](=O)[O-])SCC(=O)OCCCC)c(F)c1F (stereo not drawn) [Example 147] | – | 0 | 0 | 0 | 0 | 0 | 0 | 0 |
| O=[N+]([O-])CC(SCc1ccccc1)c1c(F)c(F)c(F)c(F)c1F (stereo not drawn) [Example 148] | – | 0 | 0 | 0 | 0 | 0 | 0 | 0 |
| COC(=O)CSc1c(F)c(F)c(C(C[N+](=O)[O-])SCC(=O)OC)c(F)c1F (stereo not drawn) [Example 141] | – | 8 | 0 | 0 | 0 | 0 | 0 | 0 |
| CCCCOC(=O)CSC(C[N+](=O)[O-])c1c(F)c(F)c(F)c(F)c1F (stereo not drawn) [Example 146] | – | 7 | 0 | 8 (8 = 86-99% kill) | 0 | 0 | 0 | 0 |
| CCOC(=O)CSC(C[N+](=O)[O-])c1c(F)c(F)c(F)c(F)c1F (stereo not drawn) [Example 142] | – | 8 | 0 | 9 (9 = 100% kill) | 0 | 4 (4 = 46-55% kill) | 0 | 0 |
| COc1cccc(C(C[N+](=O)[O-])SCc2ccco2)c1 (stereo not drawn) [Example 158] | – | 9 | 0 | 0 | 0 | 0 | 0 | 0 |
| CCOC(=O)CSc1c(F)c(F)c(C(C[N+](=O)[O-])SCC(=O)OCC)c(F)c1F (stereo not drawn) [Example 143] | – | 0 | 0 | 0 | 0 | 0 | 0 | 0 |
| C=CCSC(C[N+](=O)[O-])c1ccccc1 (stereo not drawn) [Example 2] | 9 | 0 | – | – | – | – | 0 | 0 |
| O=[N+]([O-])CC(SCc1ccccc1)c1c(F)c(F)c(SCc2ccccc2)c(F)c1F (stereo not drawn) [Example 149] | – | 0 | 0 | 0 | 0 | 0 | 0 | 0 |
| CCCOC(=O)CSc1c(F)c(F)c(C(C[N+](=O)[O-])SCC(=O)OCCC)c(F)c1F (stereo not drawn) [Example 145] | – | 0 | 0 | 0 | 0 | 0 | 0 | 0 |
